Tests used:
Beta-TC3 = assay: Repolarization of beta-TC3 cells; type: functional, cell-based, Mus musculus
Beta-TC6 [1] = assay: Inhibition of glucose-stimulated insulin release in betaTC6 cells; type: functional, cell-based; conditions: Mus musculus
Beta-TC6 [2] = assay: Inhibition of glucose-stimulated insulin release in beta-TC6 cells at 10 uM; type: functional, Mus musculus
Rattus norvegicus [3] = species on record: Rattus norvegicus; assay: Relaxation of precontracted Wistar rat aorta rings; type: functional, organism-based; conditions: for EC50: Rattus norvegicus, Aorta
[4] = Half life in Sprague-Dawley rat at 2.48 mg/kg, po; type: ADME, organism-based; design: dose 2.48 mg/kg, route oral; conditions: in vivo
[5] = Oral bioavailability in Sprague-Dawley rat at 2.48 mg/kg, po; type: ADME, organism-based; conditions: in vivo
[6] = Tmax in Sprague-Dawley rat at 2.48 mg/kg, po or 1.08 mg/kg, iv; type: ADME, organism-based; conditions: in vivo
Rattus norvegicus [7] = assay: Reduction in plasma insulin level in po dosed Zucker obese rat after 2 hrs; type: functional; conditions: read-out: ID50 (the source's name)
Rattus norvegicus [8] = assay: Reduction in plasma insulin level in anaesthetized Sprague-Dawley rat at 3 mg/kg, iv; type: functional
[9] = Plasma concentration in Sprague-Dawley rat after 30 mins; type: ADME, organism-based
[10] = Cmax in Sprague-Dawley rat at 2.48 mg/kg, po; type: ADME, organism-based; design: dose 2.48 mg/kg, route oral; conditions: in vivo
[11] = Clearance in Sprague-Dawley rat at 2.48 mg/kg, po or 1.08 mg/kg, iv; type: ADME, organism-based; conditions: in vivo
[12] = target: T1, Sulfonylurea receptor 1, Kir6.2 (Homo sapiens, UniProt Q09428+Q14654); assay: Repolarization of HEK293 cells expressing Kir6.2/SUR1 KATP channels; type: functional, cell-based
T1 sequence (Q14654 whole entry): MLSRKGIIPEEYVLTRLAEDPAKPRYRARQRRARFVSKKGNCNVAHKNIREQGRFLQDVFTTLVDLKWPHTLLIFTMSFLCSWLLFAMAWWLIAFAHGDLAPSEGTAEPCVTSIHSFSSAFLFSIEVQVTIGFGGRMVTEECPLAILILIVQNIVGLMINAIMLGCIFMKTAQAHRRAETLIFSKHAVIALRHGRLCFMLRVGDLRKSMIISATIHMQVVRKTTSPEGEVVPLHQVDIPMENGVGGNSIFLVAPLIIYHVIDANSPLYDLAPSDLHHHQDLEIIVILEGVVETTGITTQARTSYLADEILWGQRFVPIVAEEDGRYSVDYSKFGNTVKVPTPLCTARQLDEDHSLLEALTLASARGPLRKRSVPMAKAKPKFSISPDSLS
T1 sequence (Q09428 whole entry): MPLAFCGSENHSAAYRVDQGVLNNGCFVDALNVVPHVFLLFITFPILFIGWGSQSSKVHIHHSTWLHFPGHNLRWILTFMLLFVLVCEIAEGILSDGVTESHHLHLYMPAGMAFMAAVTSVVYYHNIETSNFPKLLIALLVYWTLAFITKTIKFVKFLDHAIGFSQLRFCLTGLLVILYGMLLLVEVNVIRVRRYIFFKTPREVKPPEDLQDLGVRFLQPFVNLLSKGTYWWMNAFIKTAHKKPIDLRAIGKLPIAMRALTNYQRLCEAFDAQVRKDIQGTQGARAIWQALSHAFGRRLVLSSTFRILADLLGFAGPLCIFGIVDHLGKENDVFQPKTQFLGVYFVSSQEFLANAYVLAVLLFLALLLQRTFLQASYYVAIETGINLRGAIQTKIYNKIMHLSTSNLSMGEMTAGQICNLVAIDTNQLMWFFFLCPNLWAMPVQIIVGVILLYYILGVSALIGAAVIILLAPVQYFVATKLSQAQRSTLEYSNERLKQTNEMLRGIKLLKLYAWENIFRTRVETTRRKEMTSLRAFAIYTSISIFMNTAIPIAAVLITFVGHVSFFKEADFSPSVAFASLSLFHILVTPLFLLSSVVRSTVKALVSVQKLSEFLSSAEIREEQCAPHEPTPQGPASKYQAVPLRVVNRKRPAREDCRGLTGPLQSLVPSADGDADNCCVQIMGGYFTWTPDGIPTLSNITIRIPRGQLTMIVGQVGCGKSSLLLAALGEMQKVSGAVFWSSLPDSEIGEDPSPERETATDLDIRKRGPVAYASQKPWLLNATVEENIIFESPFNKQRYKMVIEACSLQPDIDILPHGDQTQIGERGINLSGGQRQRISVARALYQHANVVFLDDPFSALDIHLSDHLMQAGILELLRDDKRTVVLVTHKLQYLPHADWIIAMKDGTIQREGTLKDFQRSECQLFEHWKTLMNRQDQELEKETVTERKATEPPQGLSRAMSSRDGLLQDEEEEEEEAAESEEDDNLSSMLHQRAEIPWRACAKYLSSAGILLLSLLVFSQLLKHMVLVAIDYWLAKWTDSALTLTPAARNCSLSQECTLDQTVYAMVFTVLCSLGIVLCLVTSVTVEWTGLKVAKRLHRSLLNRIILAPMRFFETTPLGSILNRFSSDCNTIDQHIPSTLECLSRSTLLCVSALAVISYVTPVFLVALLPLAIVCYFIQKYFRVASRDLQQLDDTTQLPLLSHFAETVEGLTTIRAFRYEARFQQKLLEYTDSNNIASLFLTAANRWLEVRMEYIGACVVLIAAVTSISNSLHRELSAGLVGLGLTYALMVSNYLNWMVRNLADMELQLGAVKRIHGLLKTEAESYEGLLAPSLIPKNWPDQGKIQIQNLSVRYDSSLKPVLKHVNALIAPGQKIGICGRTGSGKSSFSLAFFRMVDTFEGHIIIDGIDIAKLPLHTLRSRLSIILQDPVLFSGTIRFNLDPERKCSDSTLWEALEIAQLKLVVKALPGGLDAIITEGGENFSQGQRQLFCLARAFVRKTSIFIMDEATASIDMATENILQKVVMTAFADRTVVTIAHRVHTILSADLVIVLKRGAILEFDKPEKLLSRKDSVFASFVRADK

Rattus norvegicus [13] = species on record: Rattus norvegicus; assay: Inhibition of glucose-stimulated insulin release in Wistar rat islets; type: functional, organism-based
[14] = Clearance in Sprague-Dawley rat at 2.3 mg/kg, po or 1.24 mg/kg, iv; type: ADME, organism-based; conditions: in vivo
[15] = target: T1, Sulfonylurea receptor 1, Kir6.2; assay: Displacement of [3H]glibenclamide from human Kir6.2/SUR1 expressed in HEK293 cells; type: cell-based
[16] = Oral bioavailability in Sprague-Dawley rat at 2.3 mg/kg, po; type: ADME, organism-based; conditions: in vivo
[17] = Tmax in Sprague-Dawley rat at 2.3 mg/kg, po or 1.24 mg/kg, iv; type: ADME, organism-based; conditions: in vivo
[18] = Cmax in Sprague-Dawley rat at 2.3 mg/kg, po; type: ADME, organism-based; design: dose 2.3 mg/kg, route oral; conditions: in vivo
[19] = Half life in Sprague-Dawley rat at 2.3 mg/kg, po; type: ADME, organism-based; design: dose 2.3 mg/kg, route oral; conditions: in vivo
[20] = target: T1, Sulfonylurea receptor 1, Kir6.2; assay: Displacement of [3H]glibenclamide from human Kir6.2/SUR1 expressed in HEK293 cells in presence of 2 mM ATP; type: cell-based
[21] = Clearance in Sprague-Dawley rat at 2.19 mg/kg, po or 1.22 mg/kg, iv; type: ADME, organism-based; conditions: in vivo
[22] = Cmax in Sprague-Dawley rat at 2.19 mg/kg, po; type: ADME, organism-based; design: dose 2.19 mg/kg, route oral; conditions: in vivo
[23] = Tmax in Sprague-Dawley rat at 2.19 mg/kg, po or 1.22 mg/kg, iv; type: ADME, organism-based; conditions: in vivo
[24] = Oral bioavailability in Sprague-Dawley rat at 2.19 mg/kg, po; type: ADME, organism-based; conditions: in vivo
[25] = Half life in Sprague-Dawley rat at 2.19 mg/kg, po; type: ADME, organism-based; design: dose 2.19 mg/kg, route oral; conditions: in vivo
[26] = Half life in Sprague-Dawley rat at 2 mg/kg, po; type: ADME, organism-based; design: dose 2 mg/kg, route oral; conditions: in vivo
[27] = Clearance in Sprague-Dawley rat at 2 mg/kg, po or 0.5 mg/kg, iv; type: ADME, organism-based; conditions: in vivo
[28] = Cmax in Sprague-Dawley rat at 2 mg/kg, po; type: ADME, organism-based; design: dose 2 mg/kg, route oral; conditions: in vivo
Rattus norvegicus [29] = assay: Oral bioavailability in Sprague-Dawley rat at 2 mg/kg, po; type: ADME, organism-based; conditions: in vivo
[30] = Tmax in Sprague-Dawley rat at 2 mg/kg, po or 0.5 mg/kg, iv; type: ADME, organism-based; conditions: in vivo
[31] = Tmax in Sprague-Dawley rat at 1.89 mg/kg, po or 0.89 mg/kg, iv; type: ADME, organism-based; conditions: in vivo
[32] = Cmax in Sprague-Dawley rat at 1.89 mg/kg, po; type: ADME, organism-based; design: dose 1.89 mg/kg, route oral; conditions: in vivo
[33] = Oral bioavailability in Sprague-Dawley rat at 1.89 mg/kg, po; type: ADME, organism-based; conditions: in vivo
[34] = Half life in Sprague-Dawley rat at 1.89 mg/kg, po; type: ADME, organism-based; design: dose 1.89 mg/kg, route oral; conditions: in vivo
[35] = Clearance in Sprague-Dawley rat at 1.89 mg/kg, po or 0.89 mg/kg, iv; type: ADME, organism-based; conditions: in vivo
[36] = Mus musculus, Beta-TC3, read-out: EC50

CC1(NC2=NS(=O)(=O)c3sc(Cl)cc3N2)CCC1
EC50 (Beta-TC3; [36]): 20 nM | EC50 (Beta-TC6 [1]): 20 nM | Efficacy (Beta-TC6 [2]): 92%

C[C@@H](NC1=NS(=O)(=O)c2sc(Cl)cc2N1)c1ccccc1
EC50 (Beta-TC3; [36]): 500 nM | EC50 (Rattus norvegicus [3]): 24000 nM | EC50 (Beta-TC6 [1]): 990 nM | Efficacy (Beta-TC6 [2]): 68%

C[C@H](NC1=NS(=O)(=O)c2sc(Cl)cc2N1)c1ccc(Br)cc1
EC50 (Beta-TC3; [36]): 2000 nM | EC50 (Rattus norvegicus [3]): 95000 nM | EC50 (Beta-TC6 [1]): 2070 nM | Efficacy (Beta-TC6 [2]): 69%

CC1(NC2=NS(=O)(=O)c3scc(Br)c3N2)CC1
EC50 (Beta-TC3; beta-tc3): Not Active | EC50 (Beta-TC6 [1]): 6700 nM | Efficacy (Beta-TC6 [2]): 5%

CC1(NC2=NS(=O)(=O)c3scc(Cl)c3N2)CC1
EC50 (Beta-TC3; beta-tc3): Not Active | EC50 (Beta-TC6 [1]): 280 nM | Efficacy (Beta-TC6 [2]): 2%

CC(C)NC1=NS(=O)(=O)c2cc(Cl)sc2N1
EC50 (Beta-TC3; [36]): 5000 nM | EC50 (Rattus norvegicus [3]): > 300000 nM | EC50 (Beta-TC6 [1]): 19800 nM | Efficacy (Beta-TC6 [2]): 16%

CC1(NC2=NS(=O)(=O)c3sc(Br)cc3N2)CC1
half-life [4]: 2.6 h | EC50 (Beta-TC3; [36]): 140 nM | bioavailability [5]: 96% | Tmax [6]: 1.5 h | ED50 (Rattus norvegicus [7]): < 3 mg/kg | inhibition in vivo at 3 mg/kg (Rattus norvegicus [8]): 97% | concentration at 0.5 h [9]: 340 ng/mL | Cmax [10]: 885 ng/mL | EC50 (Rattus norvegicus [3]): 133000 nM | clearance [11]: 15 mL/min/kg | EC50 (Beta-TC6 [1]): 310 nM | Efficacy (Beta-TC6 [2]): 81% | EC50 [12]: 160 nM | EC50 (Rattus norvegicus [13]): 20 nM

COc1ccc(C2(NC3=NS(=O)(=O)c4sc(Cl)cc4N3)CC2)cc1
EC50 (Beta-TC3; [36]): 500 nM | EC50 (Rattus norvegicus [3]): 2890 nM | EC50 (Beta-TC6 [1]): 3570 nM | Efficacy (Beta-TC6 [2]): 69%

C[C@H](NC1=NS(=O)(=O)c2sc(Cl)cc2N1)c1ccccc1
Emax (Beta-TC3; Mus musculus, Beta-TC3): < 60% | EC50 (Beta-TC3; [36]): 3500 nM | EC50 (Rattus norvegicus [3]): 34900 nM | EC50 (Beta-TC6 [1]): 13000 nM | Efficacy (Beta-TC6 [2]): 28%

CC(C)(NC1=NS(=O)(=O)c2sc(Cl)cc2N1)c1ccccc1
EC50 (Beta-TC3; [36]): 130 nM | clearance [14]: 7.3 mL/min/kg | ED50 (Rattus norvegicus [7]): 4 mg/kg | inhibition in vivo at 3 mg/kg (Rattus norvegicus [8]): 86% | IC50 [15]: 360000 nM | bioavailability [16]: 82% | EC50 (Rattus norvegicus [3]): 103000 nM | Tmax [17]: 0.25 h | Cmax [18]: 2590 ng/mL | half-life [19]: 0.867 h | IC50 [20]: 81 nM | EC50 (Beta-TC6 [1]): 240 nM | Efficacy (Beta-TC6 [2]): 76% | EC50 [12]: 180 nM | EC50 (Rattus norvegicus [13]): 40 nM

CN1C(NC2(C)CC2)=NS(=O)(=O)c2sc(Cl)cc21
EC50 (Beta-TC3; beta-tc3): Not Active | EC50 (Beta-TC6 [1]): 740 nM | Efficacy (Beta-TC6 [2]): 23%

O=S1(=O)N=C(NC2(C(F)(F)F)CC2)Nc2cc(Cl)sc21
EC50 (Beta-TC3; [36]): 400 nM | clearance [21]: 5 mL/min/kg | ED50 (Rattus norvegicus [7]): 8 mg/kg | inhibition in vivo at 3 mg/kg (Rattus norvegicus [8]): 90% | EC50 (Rattus norvegicus [3]): 40000 nM | Cmax [22]: 533 ng/mL | Tmax [23]: 0.5 h | EC50 (Beta-TC6 [1]): 1400 nM | Efficacy (Beta-TC6 [2]): 76% | bioavailability [24]: 70% | EC50 [12]: 530 nM | EC50 (Rattus norvegicus [13]): 160 nM | half-life [25]: 5.5 h

O=S1(=O)NC(NCc2ccccc2)=Nc2cc(Cl)sc21
Emax (Beta-TC3; Mus musculus, Beta-TC3): < 60% | EC50 (Beta-TC3; [36]): 3600 nM | EC50 (Rattus norvegicus [3]): 133000 nM | EC50 (Beta-TC6 [1]): 6110 nM | Efficacy (Beta-TC6 [2]): 30%

O=S1(=O)NC(NC2(c3ccccc3)CC2)=Nc2cc(Cl)sc21
EC50 (Beta-TC3; [36]): 480 nM | EC50 (Rattus norvegicus [3]): 183000 nM | EC50 (Beta-TC6 [1]): 2670 nM | Efficacy (Beta-TC6 [2]): 66% | EC50 [12]: 810 nM | EC50 (Rattus norvegicus [13]): 110 nM

O=S1(=O)N=C(NC2(c3cccc(Cl)c3)CCC2)Nc2cc(Cl)sc21
EC50 (Beta-TC3; [36]): 160 nM | EC50 (Rattus norvegicus [3]): 13900 nM | EC50 (Beta-TC6 [1]): 13400 nM | Efficacy (Beta-TC6 [2]): 40%

CC1(NC2=NS(=O)(=O)c3sccc3N2)CC1
EC50 (Beta-TC3; [36]): > 30000 nM | Efficacy (Rattus norvegicus [3]): 18% | EC50 (Rattus norvegicus [3]): 6870 nM | EC50 (Beta-TC6 [1]): 190 nM | Efficacy (Beta-TC6 [2]): 19%

CC1(NC2=NS(=O)(=O)c3cc(Cl)sc3N2)CC1
EC50 (Beta-TC3; beta-tc3): Not Active

O=S1(=O)N=C(NCC(F)(F)F)Nc2cc(Cl)sc21
EC50 (Beta-TC3; [36]): 3100 nM | EC50 (Rattus norvegicus [3]): 173000 nM | EC50 (Beta-TC6 [1]): 150 nM | Efficacy (Beta-TC6 [2]): 36%

CC1=Nc2ccc(Cl)cc2S(=O)(=O)N1 [DIAZOXIDE]
EC50 (Beta-TC3; [36]): 13700 nM | half-life [26]: 1.32 h | ED50 (Rattus norvegicus [7]): > 30 mg/kg | inhibition in vivo at 3 mg/kg (Rattus norvegicus [8]): 53% | clearance [27]: 8 mL/min/kg | Cmax [28]: 1450 ng/mL | EC50 (Beta-TC6 [1]): 23000 nM | Efficacy (Beta-TC6 [2]): 25% | F (Rattus norvegicus [29]): 154% | EC50 (Rattus norvegicus [13]): 20300 nM | Tmax [30]: 1 h

CC1(NC2=NS(=O)(=O)c3sc(Cl)cc3N2)CC1 [TIFENAZOXIDE]
Tmax [31]: 0.5 h | Cmax [32]: 1230 ng/mL | bioavailability [33]: 103% | ED50 (Rattus norvegicus [7]): 1.5 mg/kg | inhibition in vivo at 3 mg/kg (Rattus norvegicus [8]): 85% | half-life [34]: 4.17 h | clearance [35]: 7.02 mL/min/kg | EC50 (Beta-TC6 [1]): 250 nM | Efficacy (Beta-TC6 [2]): 73%

From ChEMBL document CHEMBL1138902, “New 3-alkylamino-4H-thieno-1,2,4-thiadiazine 1,1-dioxide derivatives activate ATP-sensitive potassium channels of pancreatic beta cells” (J Med Chem, 2006)
